Each compound was assayed on bromodomain (assay: at least one of the bromodomain cell assays of Example 57). Conditions: at least one of the bromodomain cell assays described in Example 57; read-out: IC50 in at least one of the bromodomain cell assays.
Type: cell-based

IC50 [µM] | SMILES
< 10 | Cc1noc(C)c1-c1cnc2c(c1)c(C(c1ccccn1)c1ccccn1)cn2-c1ccc(C(=O)O)cc1 [P-0735, 4-[3-[bis(2-pyridyl)methyl]-5-(3,5-dimethylisoxazol-4-yl)pyrrolo[2,3-b]pyridin-1-yl]benzoic acid]
< 10 | Cc1ccc(-c2cn([C@@H](c3ccccc3)c3ccccn3)c3cc(-c4c(C)noc4C)ccc23)cc1 [P-0789, 3,5-dimethyl-4-[1-[(S)-phenyl(2-pyridyl)methyl]-3-(p-tolyl)indol-6-yl]isoxazole]
< 10 | Cc1ccc(-c2cn([C@@H](c3ccccn3)C3CCCC3)c3cc(-c4c(C)noc4C)cnc23)cc1 [P-0821, 4-[1-[(R)-cyclopentyl(2-pyridyl)methyl]-3-(p-tolyl)pyrrolo[3,2-b]pyridin-6-yl]-3,5-dimethyl-isoxazole]
< 10 | Cc1ccc(-c2cn([C@@H](c3ccccc3)c3ccccn3)c3cc(-c4c(C)noc4C)cnc23)cc1 [P-0714, 3,5-dimethyl-4-[1-[(S)-phenyl(2-pyridyl)methyl]-3-(p-tolyl)pyrrolo[3,2-b]pyridin-6-yl]isoxazole]
< 10 | Cc1noc(C)c1-c1cnc2c(-c3cnn(C)c3)cn([C@@H](c3ccccc3)c3ccccn3)c2c1 [P-0721, 3,5-dimethyl-4-[3-(1-methylpyrazol-4-yl)-1-[(S)-phenyl(2-pyridyl)methyl]pyrrolo[3,2-b]pyridin-6-yl]isoxazole]
< 10 | Cc1noc(C)c1-c1cnc2c(-c3cnn(C)c3)cn([C@H](c3ccccc3)c3ccccn3)c2c1 [P-0732, 3,5-dimethyl-4-[3-(1-methylpyrazol-4-yl)-1-[(R)-phenyl(2-pyridyl)methyl]pyrrolo[3,2-b]pyridin-6-yl]isoxazole]
< 10 | Cc1ccc(-c2cn([C@H](c3ccccn3)C3CCCCC3)c3cc(-c4c(C)noc4C)cnc23)cc1 [P-0818, 4-[1-[(S)-cyclohexyl(2-pyridyl)methyl]-3-(p-tolyl)pyrrolo[3,2-b]pyridin-6-yl]-3,5-dimethyl-isoxazole]
< 10 | Cc1noc(C)c1-c1cnc2c(c1)c(C(c1ccccc1)c1ccccc1)cn2-c1ccc(C(=O)O)cc1 [P-0740, 4-[3-benzhydryl-5-(3,5-dimethylisoxazol-4-yl)pyrrolo[2,3-b]pyridin-1-yl]benzoic acid]
< 10 | Cc1noc(C)c1-c1ccc2c(-c3ccc(C#N)nc3)cn([C@H](c3ccccc3)c3ccccn3)c2c1 [P-0758, 5-[6-(3,5-dimethylisoxazol-4-yl)-1-[(R)-phenyl(2-pyridyl)methyl]indol-3-yl]pyridine-2-carbonitrile]
< 10 | Cc1noc(C)c1-c1ccc2c(-c3ccc(C#N)nc3)cn([C@@H](c3ccccc3)c3ccccn3)c2c1 [P-0754, 5-[6-(3,5-dimethylisoxazol-4-yl)-1-[(S)-phenyl(2-pyridyl)methyl]indol-3-yl]pyridine-2-carbonitrile]
< 10 | Cc1noc(C)c1-c1cnc2c(c1)c(C(c1ccccc1)c1ccccc1)cn2C(F)F [P-0739, 4-[3-benzhydryl-1-(difluoromethyl)pyrrolo[2,3-b]pyridin-5-yl]-3,5-dimethyl-isoxazole]
< 10 | Cc1noc(C)c1-c1cnc2c(c1)c(C(c1ccccc1)c1ccccc1)cn2-c1ccc(C(=O)O)cn1 [P-0742, 6-[3-benzhydryl-5-(3,5-dimethylisoxazol-4-yl)pyrrolo[2,3-b]pyridin-1-yl]pyridine-3-carboxylic acid]
< 10 | Cc1noc(C)c1-c1cnc2c(-c3ccc(B(O)O)cc3)cn([C@H](c3ccccc3)c3ccccn3)c2c1 [P-0729, [4-[6-(3,5-dimethylisoxazol-4-yl)-1-[(R)-phenyl(2-pyridyl)methyl]pyrrolo[3,2-b]pyridin-3-yl]phenyl]boronic acid]
< 10 | Cc1noc(C)c1-c1cnc2c(c1)c(C(c1ccccn1)c1ccccn1)cn2C(F)F [P-0734, 4-[3-[bis(2-pyridyl)methyl]-1-(difluoromethyl)pyrrolo[2,3-b]pyridin-5-yl]-3,5-dimethyl-isoxazole]

The remaining lines, values behind:

SMILES | IC50 [µM]
Cc1noc(C)c1-c1cnc2c(-c3ccc(C(=O)O)cc3)cn(CC3CCOCC3)c2c1 [P-0769, 4-[6-(3,5-dimethylisoxazol-4-yl)-1-(tetrahydropyran-4-ylmethyl)pyrrolo[3,2-b]pyridin-3-yl]benzoic acid] | < 10
Cc1noc(C)c1-c1ccc2c(-c3ccc(CO)cc3)cn([C@@H](c3ccccc3)c3ccccn3)c2c1 [P-0753, [4-[6-(3,5-dimethylisoxazol-4-yl)-1-[(S)-phenyl(2-pyridyl)methyl]indol-3-yl]phenyl]methanol] | < 10
Cc1cc(-c2cnc3c(-c4ccc(C(=O)O)cc4)cn(CC4CCC(F)(F)CC4)c3c2)cn(C)c1=O [P-0613, 4-[1-[(4,4-difluorocyclohexyl)methyl]-6-(1,5-dimethyl-6-oxo-3-pyridyl)pyrrolo[3,2-b]pyridin-3-yl]benzoic acid] | < 10
C[C@@H](c1ccccn1)n1cc(-c2ccc(C(=O)O)cc2)c2ccc(-c3cc(Cl)c(=O)n(C)c3)cc21 [P-0765, 4-[6-(5-chloro-1-methyl-6-oxo-3-pyridyl)-1-[(1S)-1-(2-pyridyl)ethyl]indol-3-yl]benzoic acid] | < 10
COc1cc(-c2cn(CC3(C)CCCCC3)c3cc(-c4c(C)noc4C)cnc23)ccc1C(=O)O [P-0780, 4-[6-(3,5-dimethylisoxazol-4-yl)-1-[(1-methylcyclohexyl)methyl]pyrrolo[3,2-b]pyridin-3-yl]-2-methoxy-benzoic acid] | < 10
Cc1noc(C)c1-c1cnc2c(-c3ccc4c(c3)COC4=O)cn(CC3CCCCC3)c2c1 [P-0797, 5-[1-(cyclohexylmethyl)-6-(3,5-dimethylisoxazol-4-yl)pyrrolo[3,2-b]pyridin-3-yl]-3H-isobenzofuran-1-one] | < 10
Cc1noc(C)c1-c1ccc2c(-c3cnn(C)c3)cn(S(=O)(=O)c3ccccc3)c2c1 [P-0230, 4-[1-(benzenesulfonyl)-3-(1-methylpyrazol-4-yl)indol-6-yl]-3,5-dimethyl-isoxazole] | < 10
Cc1noc(C)c1-c1ccc2c(-c3ccc(C(=O)O)cc3)cn(CC3CCC(F)(F)CC3)c2c1 [P-0745, 4-[1-[(4,4-difluorocyclohexyl)methyl]-6-(3,5-dimethylisoxazol-4-yl)indol-3-yl]benzoic acid] | < 10
Cc1noc(C)c1-c1cnc2c(-c3ccc(C(C)(C)C)cc3)cn(Cc3ccccn3)c2c1 [P-0804, 4-[3-(4-tert-butylphenyl)-1-(2-pyridylmethyl)pyrrolo[3,2-b]pyridin-6-yl]-3,5-dimethyl-isoxazole] | < 10
COC(=O)c1ccc(-c2cn(CC3CC4CC4C3)c3cc(-c4c(C)noc4C)cnc23)cc1 (stereo not drawn) [P-0609, methyl 4-[1-(3-bicyclo[3.1.0]hexanylmethyl)-6-(3,5-dimethylisoxazol-4-yl)pyrrolo[3,2-b]pyridin-3-yl]benzoate] | < 10
Cc1nnn(C)c1-c1cnc2c(-c3ccc(C(C)(C)C)cc3)cn(CC3(F)CCC(F)(F)CC3)c2c1 [P-0809, 3-(4-tert-butylphenyl)-6-(3,5-dimethyltriazol-4-yl)-1-[(1,4,4-trifluorocyclohexyl)methyl]pyrrolo[3,2-b]pyridine] | < 10
Cc1noc(C)c1-c1cnc2c(-c3ccc(B(O)O)cc3)cn(CC3CCCCC3)c2c1 [P-0709, [4-[1-(cyclohexylmethyl)-6-(3,5-dimethylisoxazol-4-yl)pyrrolo[3,2-b]pyridin-3-yl]phenyl]boronic acid] | < 10
COc1cc(-c2cn(CC3CCC(F)(F)CC3)c3cc(-c4c(C)noc4C)ccc23)ccc1C(=O)O [P-0746, 4-[1-[(4,4-difluorocyclohexyl)methyl]-6-(3,5-dimethylisoxazol-4-yl)indol-3-yl]-2-methoxy-benzoic acid] | < 10
Cc1noc(C)c1-c1ccc2c(-c3ccc([N+](=O)[O-])nc3)cn(CC3CCC(F)(F)CC3)c2c1 [P-0750, 4-[1-[(4,4-difluorocyclohexyl)methyl]-3-(6-nitro-3-pyridyl)indol-6-yl]-3,5-dimethyl-isoxazol] | < 10
Cc1ccc(-c2cn(CC3CC4CC4C3)c3cc(-c4c(C)noc4C)cnc23)cc1 (stereo not drawn) [P-0795, 4-[1-(3-bicyclo[3.1.0]hexanylmethyl)-3-(p-tolyl)pyrrolo[3,2-b]pyridin-6-yl]-3,5-dimethyl-isoxazole] | < 10
Cc1noc(C)c1-c1cnc2c(-c3ccc(C(=O)O)cc3)cn([C@@H](c3ccccn3)C3CCCC3)c2c1 [P-0820, 4-[1-[(R)-cyclopentyl(2-pyridyl)methyl]-6-(3,5-dimethylisoxazol-4-yl)pyrrolo[3,2-b]pyridin-3-yl]benzoic acid] | < 10
Cc1nnn(C)c1-c1cnc2c(-c3ccc(CC(=O)O)cc3)cn(CC3CCC(F)(F)CC3)c2c1 [P-0811, 2-[4-[1-[(4,4-difluorocyclohexyl)methyl]-6-(3,5-dimethyltriazol-4-yl)pyrrolo[3,2-b]pyridin-3-yl]phenyl]acetic acid] | < 10
Cc1noc(C)c1-c1cnc2c(-c3ccc4c(c3)OC(=O)C4)cn(CC3CCCCC3)c2c1 [P-0801, 6-[1-(cyclohexylmethyl)-6-(3,5-dimethylisoxazol-4-yl)pyrrolo[3,2-b]pyridin-3-yl]-3H-benzofuran-2-one] | < 10
Cc1noc(C)c1-c1ccc2c(-c3ccc(CO)cc3)cn([C@H](c3ccccc3)c3ccccn3)c2c1 [P-0757, [4-[6-(3,5-dimethylisoxazol-4-yl)-1-[(R)-phenyl(2-pyridyl)methyl]indol-3-yl]phenyl]methanol] | < 10
Cc1noc(C)c1-c1cnc2c(-c3ccc(C(=O)OC(C)C)cc3)cn(CC3CCC(F)(F)CC3)c2c1 [P-0618, isopropyl 4-[1-[(4,4-difluorocyclohexyl)methyl]-6-(3,5-dimethylisoxazol-4-yl)pyrrolo[3,2-b]pyridin-3-yl]benzoate] | < 10
Cc1noc(C)c1-c1cnc2c(-c3ccc(C(=O)O)cc3)cn([C@H](c3ccccn3)C3CCCCC3)c2c1 [P-0815, 4-[1-[(S)-cyclohexyl(2-pyridyl)methyl]-6-(3,5-dimethylisoxazol-4-yl)pyrrolo[3,2-b]pyridin-3-yl]benzoic acid] | < 10
CCOC(=O)c1ccc(-c2cn([C@H](c3ccccc3)c3ccccn3)c3cc(-c4c(C)noc4C)ccc23)cc1 [P-0756, ethyl 4-[6-(3,5-dimethylisoxazol-4-yl)-1-[(R)-phenyl(2-pyridyl)methyl]indol-3-yl]benzoate] | < 10

— patent US10519177B2, “Heterocyclic compounds and uses thereof” (Plexxikon Inc., priority 2013, dated 2019)
